Starred links: 1 amine or outer side, 2 acyl side, 3 side chain; linkers in the order of their positions; H or OH if unused. Positions of bridges follow the written chain, without caps; N, C: chain ends. Non-standard residues stand in square brackets, D forms with d. Residues, ends and D or L forms follow the SMILES beside them. X1 = CC(C)CCCCCCCCC[C@H](CC(=O)[*:1])O[*:2]
assay: not given; details: Surf. Brij 35P 2.5%, lipid 90H 1.0%, co-surf. S LPC ca. 0.01% (as SL 80-3 0.05%), active agent 0.10%

Turbidity (FNU)	Compound
72.4	CCCCCCCCCCCCCCCC(=O)OC[C@H](O)[C@H]1OC(=O)C(O)=C1O [Ascorbyl palmitate]
19.24	CCCCC(=O)O[C@]1(C(=O)CO)[C@@H](C)C[C@H]2[C@@H]3CCC4=CC(=O)C=C[C@]4(C)[C@@]3(F)[C@@H](O)C[C@@]21C [Betamethasone 17-valerate]
10.91	CC(C)CCC[C@@H](C)[C@H]1CC[C@H]2[C@@H]3CC=C4C[C@@H](O)CC[C@]4(C)[C@H]3CC[C@]12C [Cholesterol]
10.4	Clc1ccccc1C(c1ccccc1)(c1ccccc1)n1ccnc1 [Clotrimazole]
10.02	COc1ccc(C(=O)c2ccccc2)c(O)c1 [Eusolex 4360]
55.9	CCCC(=O)O[C@]1(C(=O)CO)CC[C@H]2[C@@H]3CCC4=CC(=O)CC[C@]4(C)[C@H]3[C@@H](O)C[C@@]21C [Hydrocortisone-17 butyrate]
19.76	NC[C@@H]1O[C@H](O[C@H]2[C@@H](O)[C@H](O[C@@H]3[C@@H](O)[C@H](N)C[C@H](N)[C@H]3O[C@H]3O[C@H](CN)[C@@H](O)[C@H](O)[C@H]3N)O[C@@H]2CO)[C@H](N)[C@@H](O)[C@@H]1O.O=S(=O)(O)O [Neomycin sulphate]
31.5	O=C(/C=C/c1ccc(O)c(O)c1)O[C@H](Cc1ccc(O)c(O)c1)C(=O)O [Rosmarinic acid (90%)]

The next lines start with the compound.

Compound	Turbidity (FNU)
CC(C)CCC[C@@H](C)[C@H]1CC[C@H]2C3=CC=C4C[C@@H](O)CC[C@]4(C)[C@H]3CC[C@]12C [7-dehydrocholesterol]	58.4
COc1ccc(C(=O)CC(=O)c2ccc(C(C)(C)C)cc2)cc1 [Avobenzene]	52.9
CC12CCC(CC1=O)C2(C)C (centres unmarked) [Camphor (S-Black)]	29.70
CC(C)CCC[C@@H](C)[C@H]1CC[C@H]2[C@@H]3CC=C4C[C@@H](OS(=O)(=O)O)CC[C@]4(C)[C@H]3CC[C@]12C [Cholesterol sulphate]	9.48
CCC(=O)O[C@]1(C(=O)CCl)[C@@H](C)C[C@H]2[C@@H]3CCC4=CC(=O)C=C[C@]4(C)[C@@]3(F)[C@@H](O)C[C@@]21C [Clobetasol Propionate]	23.3
O=C(CCCCc1ccc2c(c1)OCO2)N1CCCCC1 [Cosmoperine]	6.38
O=C1OC2(c3cc(Br)c(O)c(Br)c3Oc3c2cc(Br)c(O)c3Br)c2c(Cl)c(Cl)c(Cl)c(Cl)c21 [D&C Red No. 27]	16.44
O=C(O)Cc1ccccc1Nc1c(Cl)cccc1Cl [Diclofenac]	14.39
CC1=CCC(O)(C(C)C)CC1 (centres unmarked) [Melaleucol]	19.4
CC(Cc1ccc(O)c(O)c1)C(C)Cc1ccc(O)c(O)c1 (centres unmarked) [NDGA]	40.5
COc1ccc2cc([C@H](C)C(=O)O)ccc2c1 [Naproxen]	14.99
C[C@@H]1[C@H](O)[C@@H](C)/C=C/C=C/CC/C=C/C=C/C=C/C=C/C(O[C@H]2O[C@H](C)[C@@H](O)[C@H](N)[C@@H]2O)CC2O[C@](O)(CC(O)C(O)CCC(O)CC(O)CC(O)CC(=O)O[C@H]1C)CC(O)C2C(=O)O (some centres unmarked) [Nystatin]	21.3
Nc1ccc(C(=O)O)cc1 [PABA]	8.81
CCCCCCCCCCCCCCCCCCOC(=O)[C@@]1(C)CC[C@]2(C)CC[C@]3(C)C(=CC(=O)[C@@H]4[C@@]5(C)CC[C@H](O)C(C)(C)[C@@H]5CC[C@]43C)[C@@H]2C1 [Stearyl glycrrhetinate]	88.9

same assay, conditions: Surf. Brij 35P 2.5%, lipid 90H 1.0%, co-surf. S LPC ca. 0.01% (as SL 80-3 0.05%), active agent 0.20%

Turbidity (FNU)	Compound
22.78	COC(=O)[C@@H]1[C@H]2C[C@H]3c4[nH]c5ccccc5c4CCN3C[C@@H]2CC[C@@H]1O.Cl [Yohimbine HCl USP HO]

same assay, conditions: Surf. Brij 35P 2.5%, lipid 90H 1.0%, co-surf. S LPC ca. 0.01% (as SL 80-3 0.05%), active agent 0.25%

Turbidity (FNU)	Compound
26.80	CC12CCC(CC1=O)C2(C)C (centres unmarked) [Camphor]
5.49	OCc1cc(C(O)CNCCCCCCOCCCCc2ccccc2)ccc1O (centres unmarked) [Salmeterol xinafoate]

More lines, now with the values behind:

Compound	Turbidity (FNU)
O=C(OCc1ccccc1)c1cccnc1 [Benzyl nicotinate]	18.84
C[C@]12CCC(=O)C=C1CC[C@@H]1[C@@H]2[C@@H](O)C[C@@]2(C)[C@H]1CC[C@]2(O)C(=O)CO [Hydrocortisone]	10.00
Cc1cc(CC(C)CC(C)(C)C)n(O)c(=O)c1.NCCO (centres unmarked) [Octopirox ®]	9.10
CC1CCC(C(C)C)C(OC(=O)[C@@H]2CCC(=O)N2)C1 (some centres unmarked) [Questice CQ U/A]	46.81
C=CCCCCCCCCC(=O)N[C@@H](Cc1ccccc1)C(=O)O [SepiWhite MSH]	10.43
CC(C)c1c(O)ccc2c1CC[C@H]1C(C)(C)CCC[C@]21C [Totarol ®]	12.89
COC(=O)[C@@H]1[C@H]2C[C@H]3c4[nH]c5ccccc5c4CCN3C[C@@H]2CC[C@@H]1O.Cl [Yohimbine HCl Crystalline]	9.85
COC(=O)[C@@H]1[C@H]2C[C@H]3c4[nH]c5ccccc5c4CCN3C[C@@H]2CC[C@@H]1O.Cl [Yohimbine HCl USP]	13.42

same assay, conditions: Surf. Brij 35P 2.5%, lipid 90H 1.0%, co-surf. S LPC ca. 0.01% (as SL 80-3 0.05%), active agent 0.80%

Turbidity (FNU)	Compound
6.91	Cc1cc(CC(C)CC(C)(C)C)n(O)c(=O)c1.NCCO (centres unmarked) [Octopirox ®]

same assay, conditions: Surf. Brij 35P 2.5%, lipid 90H 1%, co-surf. S LPC ca. 0.01% (as SL 80-3 0.05%), active agent […]

Turbidity (FNU)	Compound
14.59	CC12CCC(/C(=C\c3ccccc3)C1=O)C2(C)C (centres unmarked) [Unisol S-22]

same assay, conditions: Surf. Protasorb L-20 2.5%, lipid 90H 1.0%, co-surf. S LPC ca. 0.01% (as SL 80-3 0.05%), active agent 0.10%

Turbidity (FNU)	Compound
29.60	Vitamin E

same assay, conditions: Surf. Volpo L23 2.5%, lipid 90H 1.0%, co-surf. S LPC ca. 0.01% (as SL 80-3 0.05%), active agent 0.10%

Turbidity (FNU)	Compound
21.85	O=C1OC2(c3cc(Br)c(O)c(Br)c3Oc3c2cc(Br)c(O)c3Br)c2c(Cl)c(Cl)c(Cl)c(Cl)c21 [D&C Red No. 27]

same assay, conditions: Surf. Volpo L23 2.5%, lipid 90H 1.0%, co-surf. S LPC ca. 0.01% (as SL 80-3 0.05%), active agent 0.25%

Turbidity (FNU)	Compound
19.40	Cc1c(C2(c3cc(Br)c(O)c(Br)c3C)OS(=O)(=O)c3ccccc32)cc(Br)c(O)c1Br [Bromocresol Green]
10.85	Cc1cc(C2CCCCC2)n(O)c(=O)c1 [Ciclopirox olamine, reference compound]
71.50	Clc1ccc(COC(Cn2ccnc2)c2ccc(Cl)cc2Cl)cc1 (centres unmarked) [Econazole nitrate]
61.70	CCCCCCCCCCCCOC(=O)[C@@H]1CCC(=O)N1 [Laurydone ®]
58.60	CCCCCCCCCCCCCCOC(=O)[C@@H]1CCC(=O)N1 [Myristidone ®]

assay: Turbidity of surfactant/lipid compositions, formation of macromolecular complexes (Example 1); type: physicochemical; details: 2.5% surfactant, 1% 90H lipid, ca. 0.01% S LPC co-surfactant (as 0.05% SL 80-3) in water, room temperature
Protocol: Briefly, to the appropriate volume of warm water (ca. 60° C.), SL 80-3 was added. […] 90H was then added gradually, with heating and stirring maintained throughout and for a further 45 minutes after completion.
After mixing the solution was stirred and heated to around 60-70° C.
The required quantity of warm lipid emulsion was slowly added to the warm surfactant solution while stirring with the temperature maintained.

Average Turbidity [FNU]	Compound
>150	O=C(O)C(O)c1ccccc1 (racemic) [Mandelic Acid, DL-Mandelic acid]
>150	CCCCCCCC(=O)O [Octanoic Acid, Octanoic acid]
23.3	C[C@H](CCC(=O)[O-])[C@H]1CC[C@H]2[C@@H]3[C@H](O)C[C@@H]4C[C@H](O)CC[C@]4(C)[C@H]3C[C@H](O)[C@]12C.[Na+] [Sodium cholate]
14.02	Laureth-10 [P9769]

The remaining lines, values behind:

Compound	Average Turbidity [FNU]
CC(C)CCCCCCCCC[C@@H]1CC(=O)N[C@@H](CCC(=O)O)C(=O)N[C@@H](CC(C)C)C(=O)N[C@H](CC(C)C)C(=O)N[C@@H](C(C)C)C(=O)N[C@@H](CC(=O)O)C(=O)N[C@H](CC(C)C)C(=O)N[C@@H](CC(C)C)C(=O)O1 [Aminofect, Surfactin] (EL[dL]VD[dL]L; linker N-C via X1)	13.16
O=C(O)c1ccccc1 [Benzoic Acid, Benzoic acid]	>150
CCCCCCCCCC(=O)O [Capric Acid, Decanoic acid]	>150
CCCCCC(=O)O [Caproic Acid, Hexanoic acid]	>150
CCCCCCCCCCCC(=O)O [Lauric Acid, Dodecanoic acid]	>150
CCCCCCCCCCCCCCCC(=O)O [Palmitic Acid, Hexadecanoic acid]	>150
CCCCCCCC/C=C\CCCCCCCC(=O)[O-].[K+] [Potassium Oleate, Potassium oleate]	>150
O=C(O)c1ccccc1O [Salicylic Acid, 2-Hydroxybenzoic acid]	>150
CCCCCCCCCCCCOCCOCCOCCOCCOCCOCCOCCOCCO [compound 74680, Laureth-8]	131
Laureth-9 [P9641]	>150
Sodium deoxycholate [reference compound]	32.6

assay: not given; details: literature or reported; cited from earlier work

Compound	HLB number
CCCCCCCCCCCCOCCOCCOCCOCCOCCOCCOCCOCCO [compound 74680, Laureth-8]	13.1

same assay, conditions: rough average of manufacturer and literature values; cited from earlier work

Compound	Average HLB
CCCCCCCCCCCCOCCOCCOCCOCCOCCOCCOCCOCCO [compound 74680, Laureth-8]	13.1
Laureth-9 [P9641]	13.3
Laureth-10 [P9769]	13.5
Sodium deoxycholate [reference compound]	24
